22 molecules from patent US20220289732A1, “HETEROCYCLIC WDR5 INHIBITORS AS ANTI-CANCER COMPOUNDS” (NOVARTIS AG, priority 2019, published 2022) can be followed below.

pIC50: −log10 of the molar value.

The test system of one test is MV4-11 cells. Briefly: MV4-11 6-day cell growth CTG (CellTiter-Glo) assay. The class given is cell-based. To be noted: Homo sapiens, MV4-11, 144 h, 6 days, read-out: (c) MLL/WDR5 cell proliferation assay//MLL/WDR5 proliferation MV4:11 Qualified AC50. The method, boiled down: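 IC50 comes from a dose-response fit of % inhibition relative to DMSO controls, with viable cells measured by CellTiter-Glo luminescence. Compounds were tested over 12 points (1:3, starting at 50 μM final) on MV4-11 cells plated at 300/well and grown 6 days.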
Background: In ATP-based viability assays light output follows the ATP content of the culture.

A further test addresses WDR5 (Homo sapiens, UniProt P61964). Briefly: WDR5 HTRF binding assay. The settings on record: read-out: (a) WDR5 HTRF Pep Val v.1[Inhibitor/IC50]Qualified AC50. The method, boiled down: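 In this HTRF displacement format, biotinylated MLL1 WIN peptide (3762-3773, 20 nM) binds WDR5 (6 nM) in 25 mM Hepes pH 7.5 with 100 mM NaCl, 2 mM DTT and 0.1% BSA for 20 min at rt. Detection used streptavidin-APC/anti-His-Eu for 1 hr. IC50 came from dose-response fits of normalized signal; 15 nM biotin-PEG-His peptide served as counter assay.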
In general terms: TR-FRET usually uses a lanthanide donor and a delayed reading to cut background.

For test [1], the target named is wild type MLL1 four-member complex (MLL1-4C) (Homo sapiens, UniProt P61964). Briefly: MLL1 LC-MS assay (SAH production). The class given is biochemical. The settings on record: read-out: (b) MLL LCMS Peptide Val.v.1 Qualified AC50. A digest of the protocol:
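SAH formation, measured by LC-MS/MS after a TFA quench containing d4-SAH, was normalised to no-compound and no-enzyme controls and fitted to a dose-response curve for IC50. Reactions ran 120 min at rt (pH 8.0 Tris buffer) with final 30 nM MLL1 four-member complex, 2.5 μM SAM and 10 μM biotinylated H3[1-21] peptide, after a 20-min enzyme/SAM-compound preincubation.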

`CCN(C)CCc1cc2c(c(-c3cn(C)nc3C)c1)CCN([C@@H](C)c1cnc(F)c(OC)c1)C2=O` [Example 123, (S)-5-(1,3-dimethyl-1H-pyrazol-4-yl)-7-(2-(ethyl(methyl)amino)ethyl)-2-(1-(6-fluoro-5-methoxypyridin-3-yl)ethyl)-3,4-dihydroisoquinolin-1(2H)-one]: the AC50 (in the test on MV4-11 cells; in test [1]) was 10 to 1000 nM each time. The pIC50 at WDR5 was more than 8.00.

For `CNc1nccn1Cc1cc(CN(C)C2CC2)c2c(c1)C(=O)N([C@@H](C)c1cnc(F)c(OC)c1)CC2` [Example 15, (S)-5-((cyclopropyl(methyl)amino)methyl)-2-(1-(6-fluoro-5-methoxypyridin-3-yl)ethyl)-7-((2-(methylamino)-1H-imidazol-1-yl)methyl)-3,4-dihydroisoquinolin-1(2H)-one], the AC50 (with MV4-11 cells; in test [1]) was 10 to 1000 nM in each case. For the same molecule, at WDR5, the pIC50 was 6.00 to 8.00.

With `CNc1nccn1Cc1cc(-c2cc(CO)cnc2Cl)c2ccn(Cc3cccc(OC)c3)c(=O)c2c1` [Example 100, 5-(2-chloro-5-(hydroxymethyl)pyridin-3-yl)-2-(3-methoxybenzyl)-7-((2-(methylamino)-1H-imidazol-1-yl)methyl)isoquinolin-1(2H)-one], the AC50 (in the test on MV4-11 cells; in test [1]) was 10 to 1000 nM each time. Also, at WDR5, the pIC50 was 6.00 to 8.00.

For `CNc1nccn1Cc1cc2c(c(-c3ccn[nH]3)c1)CCN([C@@H](C)c1cc(OC)c(F)cn1)C2=O` [Example 63, (S)-2-(1-(5-fluoro-4-methoxypyridin-2-yl)ethyl)-7-((2-(methylamino)-1H-imidazol-1-yl)methyl)-5-(1H-pyrazol-5-yl)-3,4-dihydroisoquinolin-1(2H)-one], the AC50 (with MV4-11 cells; in test [1]) was 10 to 1000 nM in each case. In addition, at WDR5, the pIC50 is 6.00 to 8.00.

Regarding `CCOc1cc([C@H](C)N2CCc3c(CN4CC(F)C4)cc(Cn4ccnc4NC)cc3C2=O)cnc1C#N` [Example 41, (S)-3-ethoxy-5-(1-(5-((3-fluoroazetidin-1-yl)methyl)-7-((2-(methylamino)-1H-imidazol-1-yl)methyl)-1-oxo-3,4-dihydroisoquinolin-2(1H)-yl)ethyl)picolinonitrile], the AC50 (in the test on MV4-11 cells; in test [1]) was 10 to 1000 nM each time. The pIC50 at WDR5 is 6.00 to 8.00.

For `CCOc1cc([C@H](C)N2CCc3c(cc(CCN(C)CC)cc3-c3ccc(N)nc3Cl)C2=O)ncc1C#N` [Example 178, (S)-6-(1-(5-(6-amino-2-chloropyridin-3-yl)-7-(2-(ethyl(methyl)amino)ethyl)-1-oxo-3,4-dihydroisoquinolin-2(1H)-yl)ethyl)-4-ethoxynicotinonitrile], the AC50 (with MV4-11 cells; in test [1]) was 10 to 1000 nM throughout. On WDR5, the pIC50 was more than 8.00.

For `CCOc1cc(CN2CCc3c(cc(CCN(C)CC)cc3-c3cc(C)ncc3C)C2=O)ncc1C#N` [Example 179, 6-((5-(2,5-dimethylpyridin-4-yl)-7-(2-(ethyl(methyl)amino)ethyl)-1-oxo-3,4-dihydroisoquinolin-2(1H)-yl)rnethyl)-4-ethoxynicotinonitrile], the AC50 (in the test with MV4-11 cells; in test [1]) was 10 to 1000 nM in each case. The pIC50 at WDR5 was more than 8.00.

Take `CCOc1cc([C@H](C)N2CCc3c(cc(Cn4ccnc4C)cc3-c3cn(CCO)nc3C)C2=O)ncc1C#N` [Example 271]: the AC50 (in the test with MV4-11 cells; in test [1]) was 10 to 1000 nM each time. Further, the pIC50 on WDR5 is more than 8.00.

Consider `CNc1nccn1Cc1cc2c(c(-c3cn(C)nc3C(F)(F)F)c1)CCN(Cc1cc(OC)c(F)cn1)C2=O` [Example 64, 2-((5-fluoro-4-methoxypyridin-2-yl)methyl)-5-(1-methyl-3-(trifluoromethyl)-1H-pyrazol-4-yl)-7-((2-(methylamino)-1H-imidazol-1-yl)methyl)-3,4-dihydroisoquinolin-1(2H)-one], for which the AC50 (in the test with MV4-11 cells; in test [1]) was 10 to 1000 nM each time. The pIC50 on WDR5 is 6.00 to 8.00.

Regarding `CCOc1cc([C@H](C)N2CCc3c(cc(CCN(C)CC)cc3C(O)C(C)C)C2=O)ncc1C#N` (stereo partly drawn) [Example 256, 4-ethoxy-6-((1S)-1-(7-(2-(ethyl(methyl)amino)ethyl)-5-(1-hydroxy-2-methylpropyl)-1-oxo-3,4-dihydroisoquinolin-2(1H)-yl)ethyl)nicotinonitrile], the AC50 (in the test with MV4-11 cells; in test [1]) was 10 to 1000 nM throughout. For the same molecule, the pIC50 at WDR5 was 6.00 to 8.00.

For the molecule `CCOc1cc(CN2CCc3c(cc(Cn4ccnc4NC)cc3C3CC3)C2=O)nn1C` [Example 87, 5-cyclopropyl-2-((5-ethoxy-1-methyl-1H-pyrazol-3-yl)methyl)-7-((2-(methylamino)-1H-imidazol-1-yl)methyl)-3,4-dihydroisoquinolin-1(2H)-one], the AC50 (with MV4-11 cells; in test [1]) was 10 to 1000 nM each time. For the same molecule, on WDR5, the pIC50 was 6.00 to 8.00.

As for `CCOc1cc(CN2CCc3c(cc(CCN(C)CC)cc3C(OC)C(F)(F)F)C2=O)ncc1C#N` (stereo not drawn) [Example 305, 4-ethoxy-6-((7-(2-(ethyl(methyl)amino)ethyl)-1-oxo-5-(2,2,2-trifluoro-1-methoxyethyl)-3,4-dihydroisoquinolin-2(1H)-yl)methyl)nicotinonitrile], the AC50 (in the test with MV4-11 cells; in test [1]) was 10 to 1000 nM in each case. Further, the pIC50 at WDR5 is 6.00 to 8.00.

As to `CNc1nccn1Cc1cc2c(c(-c3cc(CO)cnc3Cl)c1)CCN(Cc1ccc(F)c(OC(F)F)c1)C2=O` [Example 74, 5-(2-chloro-5-(hydroxymethyl)pyridin-3-yl)-2-(3-(difluoromethoxy)-4-fluorobenzyl)-7-((2-(methylamino)-1H-imidazol-1-yl)methyl)-3,4-dihydroisoquinolin-1(2H)-one], the AC50 (with MV4-11 cells; in test [1]) was 10 to 1000 nM each time. Moreover, the pIC50 on WDR5 is 6.00 to 8.00.

Consider `CCOc1cc([C@H](C)N2CCc3c(cc(Cn4ccnc4C)cc3-c3cn(C)nc3C)C2=O)nnc1C#N` (single isomer, unassigned) [Example 303], for which the AC50 (in the test with MV4-11 cells; in test [1]) was less than 10 nM each time. The pIC50 at WDR5 is more than 8.00.

For the molecule `CCOc1cc([C@H](C)N2CCc3c(cc(Cn4ccnc4C)cc3-c3cn(C)c(=O)c(F)c3C)C2=O)ncc1F` [Example 283], the AC50 (in the test with MV4-11 cells; in test [1]) was 10 to 1000 nM in each case. In addition, on WDR5, the pIC50 is more than 8.00.

With `CCOc1cc(C(C)N2CCc3c(cc(CCN(C)CC)cc3C(C)(O)C(F)(F)F)C2=O)ncc1C#N` (stereo not drawn) [Example 304, 4-ethoxy-6-(1-(7-(2-(ethyl(methyl)amino)ethyl)-1-oxo-5-(1,1,1-trifluoro-2-hydroxypropan-2-yl)-3,4-dihydroisoquinolin-2(1H)-yl)ethyl)nicotinonitrile], the results for the AC50 (with MV4-11 cells; in test [1]) were 1000 to 25000 nM and 10 to 1000 nM, respectively. In addition, the pIC50 on WDR5 is 6.00 to 8.00.

With `CCOc1cc([C@H](C)N2CCc3c(cc(CCN(C)C4COC4)cc3-c3ccc(F)nc3C)C2=O)ncc1C#N` [Example 253], the AC50 (in the test with MV4-11 cells; in test [1]) was 10 to 1000 nM throughout. For the same molecule, the pIC50 at WDR5 is 6.00 to 8.00.

As to `CCOc1cc([C@H](C)N2CCc3c(cc(CCN4C[C@@H](O)[C@H]4C)cc3-c3cc(N)cnc3C(F)(F)F)C2=O)ncc1C#N` [Example 214], the AC50 (with MV4-11 cells; in test [1]) was 10 to 1000 nM in each case. The pIC50 at WDR5 was more than 8.00.

As for `CNc1nccn1Cc1cc2c(c(-c3cn(C)nc3C(F)F)c1)CCN(Cc1ccc(F)c(OC)c1)C2=O` [Example 66, 5-(3-(difluoromethyl)-1-methyl-1H-pyrazol-4-yl)-2-(4-fluoro-3-methoxybenzyl)-7-((2-(methylamino)-1H-imidazol-1-yl)methyl)-3,4-dihydroisoquinolin-1(2H)-one], the AC50 (in the test with MV4-11 cells; in test [1]) was 10 to 1000 nM each time. Also, the pIC50 at WDR5 was 6.00 to 8.00.

In the case of `CCOc1cc([C@H](C)N2CCc3c(cc(CCN(C)CC)cc3-c3cn(C)nc3C)C2=O)ncc1F` [Example 145, (S)-5-(1,3-dimethyl-1H-pyrazol-4-yl)-2-(1-(4-ethoxy-5-fluoropyridin-2-yl)ethyl)-7-(2-(ethyl(methyl)amino)ethyl)-3,4-dihydroisoquinolin-1(2H)-one], the AC50 (with MV4-11 cells; in test [1]) was 10 to 1000 nM in each case. In addition, the pIC50 at WDR5 was 6.00 to 8.00.

In the case of `CNc1nccn1Cc1cc(-c2cc(CO)cnc2Cl)c2ccn([C@@H](C)c3cccc(OC)c3)c(=O)c2c1` [Example 102, (S)-5-(2-chloro-5-(hydroxymethyl)pyridin-3-yl)-2-(1-(3-methoxyphenyl)ethyl)-7-((2-(methylamino)-1H-imidazol-1-yl)methyl)isoquinolin-1(2H)-one], the AC50 (in the test on MV4-11 cells; in test [1]) was 10 to 1000 nM in each case. Besides, the pIC50 on WDR5 was 6.00 to 8.00.

As for `CCOc1cc([C@H](C)N2CCc3c(cc(CCN(C)CC)cc3-c3cc(C4CC4)cnc3C)C2=O)ncc1C#N` [Example 160, (S)-6-(1-(5-(5-cyclopropyl-2-methylpyridin-3-yl)-7-(2-(ethyl(methyl)amino)ethyl)-1-oxo-3,4-dihydroisoquinolin-2(1H)-yl)ethyl)-4-ethoxynicotinonitrile], the AC50 (in the test with MV4-11 cells; in test [1]) was 10 to 1000 nM throughout. In addition, the pIC50 on WDR5 was more than 8.00.
